# What was measured:
# Test in all cases: Kinase panel profiling at 1 µmol/L (mobility shift assay, Carna)
# [1] = target: T1, SLK (Homo sapiens, UniProt Q9H2G2); format: biochemical; conditions: 1 µmol/L of BTK inhibitor
# T1 construct: purchased Carna Biosciences
# [2] = target: T2, TRKA (Homo sapiens, UniProt P04629); format: biochemical; conditions: 1 µmol/L of BTK inhibitor
# T2 construct: purchased Carna Biosciences
# [3] = target: EGFR (Homo sapiens, UniProt P00533); conditions: for Percentage inhibition of kinase enzyme activity: EGFR, 1 µmol/L of BTK inhibitor
# [4] = target: T3, CaMK2α (Homo sapiens, UniProt Q9UQM7); format: biochemical; conditions: 1 µmol/L of BTK inhibitor
# T3 construct: purchased Carna Biosciences
# [5] = target: T4, IKKβ (Homo sapiens, UniProt O14920); format: biochemical; conditions: 1 µmol/L of BTK inhibitor
# T4 construct: purchased Carna Biosciences
# T4 sequence (O14920 1-756): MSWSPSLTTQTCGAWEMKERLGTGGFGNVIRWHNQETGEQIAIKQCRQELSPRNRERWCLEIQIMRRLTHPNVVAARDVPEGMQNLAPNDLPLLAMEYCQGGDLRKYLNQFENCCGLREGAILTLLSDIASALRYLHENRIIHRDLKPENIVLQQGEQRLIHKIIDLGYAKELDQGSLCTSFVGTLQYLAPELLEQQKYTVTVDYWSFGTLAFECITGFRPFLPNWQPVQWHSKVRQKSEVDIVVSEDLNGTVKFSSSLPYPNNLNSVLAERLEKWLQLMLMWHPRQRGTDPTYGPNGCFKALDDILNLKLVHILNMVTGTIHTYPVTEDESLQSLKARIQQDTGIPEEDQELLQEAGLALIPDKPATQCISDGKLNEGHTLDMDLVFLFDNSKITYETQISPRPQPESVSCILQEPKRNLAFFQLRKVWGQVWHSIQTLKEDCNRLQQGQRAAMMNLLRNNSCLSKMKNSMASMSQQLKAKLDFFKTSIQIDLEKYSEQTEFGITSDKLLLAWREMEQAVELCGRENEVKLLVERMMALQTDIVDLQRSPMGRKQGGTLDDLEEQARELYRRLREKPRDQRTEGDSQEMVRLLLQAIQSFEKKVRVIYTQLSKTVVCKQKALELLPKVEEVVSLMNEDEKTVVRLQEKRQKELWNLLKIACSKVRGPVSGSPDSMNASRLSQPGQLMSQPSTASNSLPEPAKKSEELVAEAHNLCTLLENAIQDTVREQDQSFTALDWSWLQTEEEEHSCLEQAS
# [6] = target: T5, RSK4 (Homo sapiens, UniProt Q9UK32); format: biochemical; conditions: 1 µmol/L of BTK inhibitor
# T5 construct: purchased Carna Biosciences
# [7] = target: T6, DCAMKL2 (Homo sapiens, UniProt Q8N568); format: biochemical; conditions: 1 µmol/L of BTK inhibitor
# T6 construct: purchased Carna Biosciences
# T6 sequence (Q8N568 1-766): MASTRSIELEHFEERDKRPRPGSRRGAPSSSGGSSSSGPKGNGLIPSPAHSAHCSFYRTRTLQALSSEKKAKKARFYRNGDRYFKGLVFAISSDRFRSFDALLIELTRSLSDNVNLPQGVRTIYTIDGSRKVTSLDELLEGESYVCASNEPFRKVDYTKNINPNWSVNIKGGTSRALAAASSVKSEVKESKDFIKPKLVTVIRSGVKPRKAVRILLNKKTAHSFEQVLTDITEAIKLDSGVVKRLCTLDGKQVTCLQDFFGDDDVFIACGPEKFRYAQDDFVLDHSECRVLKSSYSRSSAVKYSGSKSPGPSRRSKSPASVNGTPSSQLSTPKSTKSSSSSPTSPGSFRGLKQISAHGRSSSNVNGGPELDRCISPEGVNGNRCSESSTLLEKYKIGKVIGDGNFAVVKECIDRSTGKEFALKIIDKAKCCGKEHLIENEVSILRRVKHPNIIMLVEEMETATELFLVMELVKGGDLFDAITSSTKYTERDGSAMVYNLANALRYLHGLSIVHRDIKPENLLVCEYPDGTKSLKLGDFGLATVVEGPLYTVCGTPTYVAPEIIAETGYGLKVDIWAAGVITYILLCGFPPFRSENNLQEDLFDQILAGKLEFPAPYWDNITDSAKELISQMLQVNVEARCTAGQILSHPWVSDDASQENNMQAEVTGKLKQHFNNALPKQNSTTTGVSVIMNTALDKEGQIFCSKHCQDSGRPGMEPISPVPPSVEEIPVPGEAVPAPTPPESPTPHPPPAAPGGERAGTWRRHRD
# [8] = target: T7, LTK (Homo sapiens, UniProt P29376); format: biochemical; conditions: 1 µmol/L of BTK inhibitor
# T7 construct: purchased Carna Biosciences
# [9] = target: T8, PLK3 (Homo sapiens, UniProt Q9H4B4); format: biochemical; conditions: 1 µmol/L of BTK inhibitor
# T8 construct: purchased Carna Biosciences
# [10] = target: T9, CDK5/p25 (Homo sapiens, UniProt Q00535); format: biochemical; conditions: 1 µmol/L of BTK inhibitor
# T9 construct: purchased Carna Biosciences
# [11] = target: T10, AKT1 (Homo sapiens, UniProt P31749); format: biochemical; conditions: 1 µmol/L of BTK inhibitor
# T10 construct: purchased Carna Biosciences
# [12] = target: T11, MARK1 (Homo sapiens, UniProt Q9P0L2); format: biochemical; conditions: 1 µmol/L of BTK inhibitor
# T11 construct: purchased Carna Biosciences
# [13] = target: T12, PKCζ (Homo sapiens, UniProt Q05513); format: biochemical; conditions: 1 µmol/L of BTK inhibitor
# T12 construct: purchased Carna Biosciences
# T12 sequence (Q05513 1-592): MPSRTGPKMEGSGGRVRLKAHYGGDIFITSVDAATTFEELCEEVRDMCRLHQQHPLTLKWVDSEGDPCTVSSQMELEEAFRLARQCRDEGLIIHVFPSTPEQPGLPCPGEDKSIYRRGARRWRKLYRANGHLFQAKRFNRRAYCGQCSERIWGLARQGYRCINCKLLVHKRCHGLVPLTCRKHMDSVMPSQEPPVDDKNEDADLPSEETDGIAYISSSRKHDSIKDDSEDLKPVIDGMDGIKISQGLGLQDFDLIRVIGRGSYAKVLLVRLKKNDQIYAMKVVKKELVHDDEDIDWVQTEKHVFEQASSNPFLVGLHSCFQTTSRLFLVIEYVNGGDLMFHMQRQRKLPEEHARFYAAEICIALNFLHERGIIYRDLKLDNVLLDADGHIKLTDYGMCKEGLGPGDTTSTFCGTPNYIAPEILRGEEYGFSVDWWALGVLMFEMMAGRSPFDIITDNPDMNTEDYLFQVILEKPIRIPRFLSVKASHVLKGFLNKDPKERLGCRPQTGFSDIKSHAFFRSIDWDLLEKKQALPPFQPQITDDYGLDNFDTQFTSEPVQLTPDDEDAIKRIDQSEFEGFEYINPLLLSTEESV
# [14] = target: T13, CDK9/CycT1 (Homo sapiens, UniProt P50750); format: biochemical; conditions: 1 µmol/L of BTK inhibitor
# T13 construct: purchased Carna Biosciences
# [15] = target: T14, MARK2 (Homo sapiens, UniProt Q7KZI7); format: biochemical; conditions: 1 µmol/L of BTK inhibitor
# T14 construct: purchased Carna Biosciences
# T7 sequence (P29376 17-864): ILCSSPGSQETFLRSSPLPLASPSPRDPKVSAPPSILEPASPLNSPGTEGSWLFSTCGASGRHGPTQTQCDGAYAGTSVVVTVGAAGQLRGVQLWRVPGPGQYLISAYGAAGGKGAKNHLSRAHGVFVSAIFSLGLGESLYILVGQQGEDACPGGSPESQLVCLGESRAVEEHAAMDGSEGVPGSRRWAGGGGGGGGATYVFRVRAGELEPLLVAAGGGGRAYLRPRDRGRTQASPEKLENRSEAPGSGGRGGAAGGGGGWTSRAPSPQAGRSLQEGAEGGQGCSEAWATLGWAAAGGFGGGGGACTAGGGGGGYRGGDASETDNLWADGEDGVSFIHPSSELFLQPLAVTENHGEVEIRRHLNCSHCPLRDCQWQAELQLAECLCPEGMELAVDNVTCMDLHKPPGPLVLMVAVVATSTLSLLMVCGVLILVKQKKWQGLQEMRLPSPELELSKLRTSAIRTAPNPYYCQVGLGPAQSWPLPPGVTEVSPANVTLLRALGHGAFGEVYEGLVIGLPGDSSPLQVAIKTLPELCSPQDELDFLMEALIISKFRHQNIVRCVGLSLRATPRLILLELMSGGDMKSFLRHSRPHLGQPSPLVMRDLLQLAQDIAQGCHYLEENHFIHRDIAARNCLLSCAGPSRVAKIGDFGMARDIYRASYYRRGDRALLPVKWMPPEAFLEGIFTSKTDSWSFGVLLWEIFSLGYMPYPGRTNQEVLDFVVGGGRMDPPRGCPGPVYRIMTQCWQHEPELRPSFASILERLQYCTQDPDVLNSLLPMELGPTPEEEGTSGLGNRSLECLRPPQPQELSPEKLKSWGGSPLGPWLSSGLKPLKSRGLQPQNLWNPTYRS
# T5 sequence (Q9UK32 whole entry): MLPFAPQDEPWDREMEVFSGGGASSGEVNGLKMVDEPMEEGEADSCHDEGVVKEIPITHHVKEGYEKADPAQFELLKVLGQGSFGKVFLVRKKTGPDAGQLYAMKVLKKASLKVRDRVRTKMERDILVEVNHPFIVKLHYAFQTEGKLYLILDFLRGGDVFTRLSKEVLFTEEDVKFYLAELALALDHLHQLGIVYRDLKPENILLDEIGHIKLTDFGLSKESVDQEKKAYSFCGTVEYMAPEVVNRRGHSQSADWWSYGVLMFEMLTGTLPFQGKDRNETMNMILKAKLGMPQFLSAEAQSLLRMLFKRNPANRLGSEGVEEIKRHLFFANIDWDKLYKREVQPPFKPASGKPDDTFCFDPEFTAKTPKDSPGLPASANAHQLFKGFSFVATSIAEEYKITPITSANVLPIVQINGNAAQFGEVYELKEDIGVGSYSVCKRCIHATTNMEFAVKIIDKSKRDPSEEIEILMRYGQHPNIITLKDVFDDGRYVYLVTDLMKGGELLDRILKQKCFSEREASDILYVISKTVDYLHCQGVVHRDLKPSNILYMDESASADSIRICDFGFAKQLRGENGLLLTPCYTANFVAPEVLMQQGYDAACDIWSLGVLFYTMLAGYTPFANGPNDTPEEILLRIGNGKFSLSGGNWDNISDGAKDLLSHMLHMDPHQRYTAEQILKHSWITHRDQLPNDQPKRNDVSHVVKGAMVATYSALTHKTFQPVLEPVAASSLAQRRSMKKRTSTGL
# T11 sequence (Q9P0L2 whole entry): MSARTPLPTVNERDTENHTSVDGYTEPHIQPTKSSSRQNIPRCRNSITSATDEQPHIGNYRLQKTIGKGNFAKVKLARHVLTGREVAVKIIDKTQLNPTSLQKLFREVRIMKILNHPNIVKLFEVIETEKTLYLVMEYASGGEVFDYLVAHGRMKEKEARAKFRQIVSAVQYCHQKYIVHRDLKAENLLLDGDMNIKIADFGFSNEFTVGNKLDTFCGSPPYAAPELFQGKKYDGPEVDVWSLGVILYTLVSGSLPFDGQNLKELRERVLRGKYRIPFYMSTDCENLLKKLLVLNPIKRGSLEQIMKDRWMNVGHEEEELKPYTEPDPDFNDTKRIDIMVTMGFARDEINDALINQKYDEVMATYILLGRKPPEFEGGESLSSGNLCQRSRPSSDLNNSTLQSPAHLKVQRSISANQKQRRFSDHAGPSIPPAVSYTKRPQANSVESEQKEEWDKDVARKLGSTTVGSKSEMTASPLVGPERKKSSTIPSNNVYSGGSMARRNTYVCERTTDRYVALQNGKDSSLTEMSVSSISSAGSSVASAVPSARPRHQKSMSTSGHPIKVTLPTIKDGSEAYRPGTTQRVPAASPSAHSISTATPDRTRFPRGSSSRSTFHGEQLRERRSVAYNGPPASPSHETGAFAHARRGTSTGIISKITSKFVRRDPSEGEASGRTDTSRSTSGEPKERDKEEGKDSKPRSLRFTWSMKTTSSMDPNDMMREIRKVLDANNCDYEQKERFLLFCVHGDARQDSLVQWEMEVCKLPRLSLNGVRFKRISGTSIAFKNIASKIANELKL
# T1 sequence (Q9H2G2 whole entry): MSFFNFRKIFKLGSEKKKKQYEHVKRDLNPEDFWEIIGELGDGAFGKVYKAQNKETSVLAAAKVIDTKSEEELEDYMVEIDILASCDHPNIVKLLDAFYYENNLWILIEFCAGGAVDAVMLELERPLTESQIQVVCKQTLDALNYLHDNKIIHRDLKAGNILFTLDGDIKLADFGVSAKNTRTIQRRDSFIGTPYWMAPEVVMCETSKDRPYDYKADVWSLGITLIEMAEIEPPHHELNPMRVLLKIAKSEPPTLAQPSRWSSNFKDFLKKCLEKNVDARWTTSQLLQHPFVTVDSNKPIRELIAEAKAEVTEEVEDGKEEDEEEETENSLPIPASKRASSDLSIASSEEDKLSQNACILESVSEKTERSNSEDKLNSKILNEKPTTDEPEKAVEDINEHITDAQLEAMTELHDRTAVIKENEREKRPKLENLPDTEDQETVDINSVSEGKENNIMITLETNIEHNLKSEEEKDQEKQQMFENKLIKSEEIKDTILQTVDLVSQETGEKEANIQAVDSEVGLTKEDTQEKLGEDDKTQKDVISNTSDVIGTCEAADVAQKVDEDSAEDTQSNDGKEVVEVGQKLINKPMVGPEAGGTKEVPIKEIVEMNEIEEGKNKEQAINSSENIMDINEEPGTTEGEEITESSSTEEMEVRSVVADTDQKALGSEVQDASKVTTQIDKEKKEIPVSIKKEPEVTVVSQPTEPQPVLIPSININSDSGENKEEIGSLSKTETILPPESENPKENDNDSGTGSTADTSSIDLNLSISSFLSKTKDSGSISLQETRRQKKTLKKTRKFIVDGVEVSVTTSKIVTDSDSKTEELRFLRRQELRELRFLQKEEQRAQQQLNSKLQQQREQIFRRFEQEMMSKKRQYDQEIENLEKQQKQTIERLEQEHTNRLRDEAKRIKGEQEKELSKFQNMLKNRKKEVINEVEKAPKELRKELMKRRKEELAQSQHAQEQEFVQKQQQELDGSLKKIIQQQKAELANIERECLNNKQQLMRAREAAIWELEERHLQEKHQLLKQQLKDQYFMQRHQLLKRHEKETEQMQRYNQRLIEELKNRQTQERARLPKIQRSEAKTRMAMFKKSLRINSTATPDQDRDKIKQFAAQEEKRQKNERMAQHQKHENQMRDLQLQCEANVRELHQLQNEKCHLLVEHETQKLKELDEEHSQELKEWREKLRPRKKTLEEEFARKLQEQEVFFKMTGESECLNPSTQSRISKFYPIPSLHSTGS
# EGFR, sequence (P00533 25-1210): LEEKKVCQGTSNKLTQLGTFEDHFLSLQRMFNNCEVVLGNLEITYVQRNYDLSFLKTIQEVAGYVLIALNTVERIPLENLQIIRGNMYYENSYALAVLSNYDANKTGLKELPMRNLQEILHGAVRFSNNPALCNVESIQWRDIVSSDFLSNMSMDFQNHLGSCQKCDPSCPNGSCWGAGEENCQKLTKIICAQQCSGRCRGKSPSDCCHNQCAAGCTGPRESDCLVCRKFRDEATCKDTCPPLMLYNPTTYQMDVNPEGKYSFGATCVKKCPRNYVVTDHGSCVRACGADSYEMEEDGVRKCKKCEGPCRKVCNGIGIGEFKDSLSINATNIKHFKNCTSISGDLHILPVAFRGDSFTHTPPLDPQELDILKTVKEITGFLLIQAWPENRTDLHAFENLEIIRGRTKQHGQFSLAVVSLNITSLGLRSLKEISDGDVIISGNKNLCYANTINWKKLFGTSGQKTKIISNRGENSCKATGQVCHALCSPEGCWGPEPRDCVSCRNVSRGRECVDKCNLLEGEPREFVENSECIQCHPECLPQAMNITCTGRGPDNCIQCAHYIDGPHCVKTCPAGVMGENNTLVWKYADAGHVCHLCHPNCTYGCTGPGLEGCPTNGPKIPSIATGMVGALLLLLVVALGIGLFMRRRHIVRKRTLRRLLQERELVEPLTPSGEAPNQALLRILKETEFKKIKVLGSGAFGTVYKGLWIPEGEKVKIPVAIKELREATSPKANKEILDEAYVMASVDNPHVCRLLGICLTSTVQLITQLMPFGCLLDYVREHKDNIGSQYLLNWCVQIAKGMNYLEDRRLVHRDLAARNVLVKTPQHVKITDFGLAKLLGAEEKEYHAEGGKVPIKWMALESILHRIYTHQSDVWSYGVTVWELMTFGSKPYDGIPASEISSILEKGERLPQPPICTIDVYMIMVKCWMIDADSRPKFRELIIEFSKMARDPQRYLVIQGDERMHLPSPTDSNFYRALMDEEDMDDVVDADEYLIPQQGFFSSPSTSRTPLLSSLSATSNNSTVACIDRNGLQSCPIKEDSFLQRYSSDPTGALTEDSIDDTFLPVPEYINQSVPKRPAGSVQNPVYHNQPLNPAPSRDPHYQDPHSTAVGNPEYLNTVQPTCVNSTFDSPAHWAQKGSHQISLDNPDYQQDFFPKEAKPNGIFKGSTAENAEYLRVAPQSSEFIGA
SMILES,Percentage inhibition of kinase enzyme activity [1] [%],Percentage inhibition of kinase enzyme activity [2] [%],Percentage inhibition of kinase enzyme activity [3] [%],Percentage inhibition of kinase enzyme activity [4] [%],Percentage inhibition of kinase enzyme activity [5] [%],Percentage inhibition of kinase enzyme activity [6] [%],Percentage inhibition of kinase enzyme activity [7] [%],Percentage inhibition of kinase enzyme activity [8] [%],Percentage inhibition of kinase enzyme activity [9] [%],Percentage inhibition of kinase enzyme activity [10] [%],Percentage inhibition of kinase enzyme activity [11] [%],Percentage inhibition of kinase enzyme activity [12] [%],Percentage inhibition of kinase enzyme activity [13] [%],Percentage inhibition of kinase enzyme activity [14] [%],Percentage inhibition of kinase enzyme activity [15] [%],inhibition at 1 µM ([3]; read-out: Inhibition of EGFR) [%]
CC#CC(=O)N1CCC[C@H]1c1nc(-c2ccc(C(=O)Nc3ccccn3)cc2)c2c(N)nccn12 [acalabrutinib],1.61,12.80,19.39,-3.43,-6.98,4.21,4.63,10.06,1.76,-19.05,-6.23,-3.49,-5.44,15.27,-9.24,–
C=CC(=O)N1CCC[C@@H](n2nc(-c3ccc(Oc4ccccc4)cc3)c3c(N)ncnc32)C1 [ibrutinib],12.11,59.18,–,-1.35,-0.35,5.52,-9.45,2.76,1.53,-5.18,-9.41,2.46,10.28,–,2.67,–
O=C(c1ccc(Oc2ccccc2)cc1Cl)c1c[nH]c2ncnc(N[C@@H]3CC[C@@H](CO)OC3)c12 [nemtabrutinib],52.74,99.52,99.77,2.91,-1.18,-2.32,-1.82,–,5.13,-18.80,-8.43,2.15,-0.78,-0.08,-4.16,–
COc1ccc(F)cc1C(=O)NCc1ccc(-c2nn([C@@H](C)C(F)(F)F)c(N)c2C(N)=O)cc1 [pirtobrutinib],-0.40,4.28,85.26,-0.99,0.58,-0.12,0.08,-0.40,-1.13,4.92,-12.80,-8.44,-3.38,-6.41,2.21,> 75
C=CC(=O)N1CCC([C@@H]2CCNc3c(C(N)=O)c(-c4ccc(Oc5ccccc5)cc4)nn32)CC1 [zanubrutinib],–,–,–,–,–,–,–,55.84,–,–,–,–,–,–,–,–
